Measurements from patent US20240182443A1, “POLYMORPHIC FORMS OF COMPOUND AND PREPARATION METHOD THEREFOR AND APPLICATION THEREOF” (SHANGHAI MEIYUE BIOTECH DEVELOPMENT CO., LTD., priority 2021, published 2024).
In brackets after ≈: the same amount, converted by molar mass.

Columns and labels:
Assay type in all cases: physicochemical
[1] = Solubility test in biological media (SGF, FaSSIF, FeSSIF) with XRPD of samples after the test; conditions: for solubility at 0.5 h / solubility at 24 h / solubility at 2 h: thermodynamic from solid
Experimental: (§1) The solubility of both the crystalline forms III and VII increased with decreasing pH value of the biological medium. Both the crystalline forms were most soluble in SGF (0.323 mg/mL VS 0.183 mg/mL @ 0.5 h) and least soluble in FaSSIF (0.034 mg/mL VS 0.025 mg/mL @ 0.5 h). […] Both the crystalline forms degraded to a certain extent as the stirring continued in the solubility test. The crystalline forms of the crystalline forms III and VII in all the three biological media changed. […] Thus, the compound is unstable in biological media (Table 13).

[2] = DVS (dynamic vapor sorption) hygroscopicity test with XRPD of the post-DVS sample; conditions: for hygroscopicity (DVS): within a range of 0-80% RH, 25° C.
Experimental: DVS tests were carried out using a dynamic vapor sorption instrument (Vsorp-Enhanced, proUmid) under the following conditions: adding a sufficient amount of a sample to the Vsorp-Enhanced instrument for simulation of dynamic vapor sorption, recording changes in weight at 25° C. with different humidity equilibrium levels, and subjecting the post-DVS test sample to an XRPD test.
The crystalline form III was characterized by XRPD, PLM, DSC, TGA and DVS. […] (FIG. 8). […] (FIG. 8). The DVS results (FIG. 9) show slight hygroscopicity at only 0.22% within a range of 0-80% RH.
The crystalline form VII was characterized by XRPD, PLM, DSC, TGA and DVS.

[3] = Test for effects of humidity on crystalline forms III and VII at 40° C. (XRPD); conditions: for physical stability (XRPD) / crystalline form change (XRPD): 40° C., 23 h; for physical stability (XRPD): 70% RH; for crystalline form change (XRPD): 80% and 90% RH; for physical stability: at 70% RH or less
Experimental: Therefore, they were further studied at 40° C. for the effects of humidity.

[4] = Solid stability and chemical stability of crystalline forms III and VII (60° C./sealed and 40° C./75% RH/open, 7 days; HPLC, XRPD); conditions: for chemical stability / crystalline form change (XRPD): 40° C./75% RH (open); for chemical stability / crystalline form change (XRPD) / physical and chemical stability / Purity-7 days (Area %): 7 days; for physical and chemical stability: 60° C. (sealed); for Purity-7 days (Area %) / Initial purity (Area %): HPLC; for Initial purity (Area %): before stability storage
Experimental: The crystalline forms III and VII were subjected to solid stability and chemical stability experiments under conditions of 60° C./sealed and 40° C./75% RH/open for 7 days. […] The amount of the crystalline form IV that formed in the crystalline form III is slightly greater than that in the crystalline form VII.

[5] = HPLC purity of the solubility test samples (stability in biological media); conditions: for HPLC (24 h): calculated as 100% HPLC purity before; for HPLC purity change: all three biological media, calculated as 100% HPLC purity before standing in the media
Experimental: as §1

[6] = Competitive slurrying experiment of crystalline forms I, III, VII and IX in butanone and isopropyl acetate; conditions: VII and IX slurried with butanone and isopropyl acetate
Experimental: A competitive slurrying experiment was carried out by slurrying a certain amount of each of the crystalline forms I, III, VII and IX with butanone and isopropyl acetate.

| crystalline form after solubility test (XRPD) ([1]; FaSSIF) | pH ([1]; FaSSIF, 0.5 h) | Solubility ([1]; FaSSIF, 2 h) [µg/mL] | pH ([1]; FaSSIF, 2 h) | pH ([1]; FaSSIF, 24 h) | pH ([1]; FeSSIF, 0.5 h) | pH ([1]; FeSSIF, 2 h) | pH ([1]; FeSSIF, 24 h) | pH ([1]; SGF, 0.5 h) | pH ([1]; SGF, 2 h) | pH ([1]; SGF, 24 h) | hygroscopicity (DVS) [2] [%] | physical stability (XRPD) [3] | physical stability [3] | chemical stability [4] | Structure (SMILES) | crystalline form after solubility test (XRPD) ([1]; FeSSIF) | crystalline form after solubility test (XRPD) ([1]; SGF) | crystalline form after the DVS test (XRPD) [2] | crystalline form change (XRPD) [3] | crystalline form change (XRPD) [4] | also measured |
| --- | --- | --- | --- | --- | --- | --- | --- | --- | --- | --- | --- | --- | --- | --- | --- | --- | --- | --- | --- | --- | --- |
| transformed into the crystalline form IV | 6.47 | 9 (≈ 21.9 µM) | 6.47 | 6.45 | 4.88 | 4.92 | 4.94 | 1.09 | 1.07 | 1.24 | 0.22 | physically stable | physically stable | chemically stable | COc1cc2nn([C@H]3CC[C@](C)(O)CC3)cc2cc1NC(=O)c1cccc(C)[n+]1[O-] [crystalline form III, 2-((2-(trans-4-hydroxy-cis-4-methylcyclohexyl)-6-methoxy-2H-indazol-5-yl)carbamoyl)-6-methylpyridine 1-oxide] | a crystal mixture of the crystalline forms IV and XIII | transformed into the crystalline form IV | transformed into a crystal mixture of the crystalline forms III and IV | a small amount of hydrate crystalline form IV formed | a small amount of hydrate crystalline form IV formed | solubility at 0.5 h ([1]; FaSSIF, 0.5 h): 34 µg/mL (≈ 82.8 µM); solubility at 24 h ([1]; FaSSIF, 24 h): 7 µg/mL (≈ 17.1 µM); Solubility ([1]; FeSSIF, 0.5 h): 105 µg/mL (≈ 256 µM); Solubility ([1]; FeSSIF, 2 h): 67 µg/mL (≈ 163 µM); Solubility ([1]; FeSSIF, 24 h): 58 µg/mL (≈ 141 µM); Solubility ([1]; SGF, 2 h): 289 µg/mL (≈ 704 µM); Solubility ([1]; SGF, 24 h): 89 µg/mL (≈ 217 µM); solubility at 0.5 h ([1]; SGF, simulated gastric fluid, 0.5 h): 323 µg/mL (≈ 787 µM); solubility at 0.5 h relative to crystalline form VII ([1]; all three biological media, 0.5 h): 1.5 times; physical and chemical stability [4]: physically and chemically stable; Purity-7 days (Area %) ([4]; 40° C./75% RH, open): 99.96 Area %; Purity-7 days (Area %) ([4]; 60° C., sealed): 99.97 Area %; Initial purity (Area %) [4]: 99.96 Area %; HPLC (24 h) ([5]; FaSSIF): 97.99%; HPLC (24 h) ([5]; FeSSIF): 96.89%; HPLC (24 h) ([5]; SGF): 99.69%; HPLC purity change [5]: decreased to a certain extent |
| transformed into the crystalline form IV | 6.42 | 29 (≈ 70.7 µM) | 6.44 | 6.48 | 4.86 | 4.90 | 4.91 | 1.23 | 1.16 | 1.26 | 0.29 | physically stable | physically stable | chemically stable | COc1cc2nn([C@H]3CC[C@](C)(O)CC3)cc2cc1NC(=O)c1cccc(C)[n+]1[O-] [crystalline form VII, 2-((2-(trans-4-hydroxy-cis-4-methylcyclohexyl)-6-methoxy-2H-indazol-5-yl)carbamoyl)-6-methylpyridine 1-oxide] | transformed into the crystalline form IV | a crystal mixture of the crystalline forms IV and XV | remained the same as that before the DVS test | a small amount of hydrate crystalline form IV formed | a small amount of hydrate crystalline form IV formed | Solubility ([1]; FaSSIF, 0.5 h): 25 µg/mL (≈ 60.9 µM); Solubility ([1]; FaSSIF, 24 h): 7 µg/mL (≈ 17.1 µM); solubility at 0.5 h ([1]; FeSSIF, 0.5 h): 68 µg/mL (≈ 166 µM); solubility at 2 h ([1]; FeSSIF, 2 h): 65 µg/mL (≈ 158 µM); solubility at 24 h ([1]; FeSSIF, 24 h): 65 µg/mL (≈ 158 µM); Solubility ([1]; SGF, 0.5 h): 183 µg/mL (≈ 446 µM); solubility at 2 h ([1]; SGF, simulated gastric fluid, 2 h): 147 µg/mL (≈ 358 µM); solubility at 24 h ([1]; SGF, simulated gastric fluid, 24 h): 92 µg/mL (≈ 224 µM); physical and chemical stability [4]: physically and chemically stable; Purity-7 days (Area %) ([4]; 40° C./75% RH, open): 99.93 Area %; Purity-7 days (Area %) ([4]; 60° C., sealed): 99.94 Area %; Initial purity (Area %) [4]: 99.92 Area %; crystalline form resulting from competitive slurrying [6]: can be produced from various slurrying processes; HPLC (24 h) ([5]; FaSSIF): 93.49%; HPLC (24 h) ([5]; FeSSIF): 93.13%; HPLC (24 h) ([5]; SGF): 99.46%; HPLC purity change [5]: decreased to a certain extent |
